Read-outs that look alike come from different tables or passages of the source.
Columns and labels:
[1] = test system: AM2 channel expressed in Xenopus oocytes; conditions: BL-1743, TEV; cited from earlier work
[2] = molecular target: full length Udorn AM2 protein (Influenza A virus, UniProt P0DOF5); assay: Two-electrode voltage clamp; format: cell-based, influenza virus A/Udorn/72; conditions: for AM2 remaing Activity after 100uM inhibition: Table 1, 100 uM inhibitor, pH 5.5, -20 mV; for inhibitory activity against AM2 (in words): tested at 100 μM
Sequence of full length Udorn AM2 protein (P0DOF5 whole entry, looked up): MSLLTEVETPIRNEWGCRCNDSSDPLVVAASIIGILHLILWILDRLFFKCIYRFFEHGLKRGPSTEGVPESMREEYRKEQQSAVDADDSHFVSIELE

[3] = read-out: Activity remaining activity after 100uM inhibition

Q: Which “Hill coefficient for inhibition” value [1] does the source give for `C1CCC2(CC1)CCN(C1=NCCN1)CC2.I` [BL-1743, 3-(4,5-Dihydro-1H-imidazol-2-yl)-3-azaspiro[5,5]undecane Hydroiodide, reference compound] here?
A: 1.0

Q: What about the “AM2 remaing Activity after 100uM inhibition” value ([2]; TEV, Xenopus oocytes) of the same compound?
A: 25%

Q: With `C1CCC2(CC1)CCN(CC1CC1)CC2` [Compound 1, 3-(Cyclopropylmethyl)-3-azaspiro[5,5]undecane] as the compound, how does the “AM2 remaing Activity after 100uM inhibition” value ([2]; TEV, Xenopus oocytes) read?
A: 100%

Q: With `C1CCC2(CC1)CCN(CC1CCCC1)CC2` [Compound 2, 3-(Cyclopentylmethyl)-3-azaspiro[5,5]undecane] as the compound, how does the “AM2 remaing Activity after 100uM inhibition” value ([2]; TEV, Xenopus oocytes) read?
A: 100%

Q: For `c1cc(CN2CCC3(CCCCC3)CC2)cs1` [Compound 3, 3-(Thiophen-3-ylmethyl)-3-azaspiro[5,5]undecane], which “AM2 remaing Activity after 100uM inhibition” value ([2]; TEV, Xenopus oocytes) is on record?
A: 90%

Q: Which “AM2 remaing Activity after 100uM inhibition” value ([2]; TEV, Xenopus oocytes) does the source give for `Cn1cc(CN2CCC3(CCCCC3)CC2)cn1` [Compound 4, 3-((1-Methyl-1H-pyrazol-4-yl)methyl)-3-azaspiro[5,5]undecane] here?
A: 100%

Q: Which “AM2 remaing Activity after 100uM inhibition” value ([2]; TEV, Xenopus oocytes) does the source give for `Cc1cc(CN2CCC3(CCCCC3)CC2)no1` [Compound 5, 3-(3-Azaspiro[5,5]undecan-3-ylmethyl)-5-methylisoxazole] here?
A: 100%

Q: For `c1ccc(CN2CCC3(CCCCC3)CC2)nc1` [Compound 6, 3-(Pyridin-2-ylmethyl)-3-azaspiro[5,5]undecane], which “AM2 remaing Activity after 100uM inhibition” value ([2]; TEV, Xenopus oocytes) is on record?
A: 100%

Q: What does the source list for `c1nc(CN2CCC3(CCCCC3)CC2)c[nH]1` [Compound 7, 3-((1H-Imidazol-4-yl)methyl)-3-azaspiro[5.5]undecane]?
A: AM2 remaing Activity after 100uM inhibition ([2]; TEV, Xenopus oocytes): 70%; inhibitory activity against AM2 (in words) [2]: moderate inhibition

Q: For `c1c[nH]c(CN2CCC3(CCCCC3)CC2)n1` [Compound 8, 3-((1H-Imidazol-2-yl)methyl)-3-azaspiro[5.5]undecane], which “AM2 remaing Activity after 100uM inhibition” value ([2]; TEV, Xenopus oocytes) is on record?
A: 49%

Q: What about the “inhibitory activity against AM2 (in words)” value (“inhibitory activity” for short) [2] of the same compound?
A: moderate inhibition

Q: With `C1CCC2(CC1)CCNCC2.Cl` [Compound 9, 3-Azaspiro[5,5]undecane Chloride] as the compound, how does the IC50 ([2]; Table 2, TEV, Xenopus oocytes) read?
A: 0.92 ± 0.11 µM

Q: What about the “increase in potency relative to BL-1743” value ([2]; ratio of IC50 values) of the same compound?
A: more than 45 fold

Q: For `CN1CCC2(CCCCC2)CC1.Cl` [Compound 10, 3-Methyl-3-azoniaspiro[5,5]undecane Chloride], which “decrease in activity relative to spiro-piperidine 9” value ([2]; ratio of IC50 values) is on record?
A: approximately 20 fold

Q: With `NC(=O)N1CCC2(CCCCC2)CC1` [Compound 12, 3-Azaspiro[5,5]undecane-3-carboxamide] as the compound, how does the “inhibitory activity” value [2] read?
A: not active

Q: With `NC(=S)N1CCC2(CCCCC2)CC1` [Compound 13, 3-Azaspiro[5,5]undecane-3-carbothioamide] as the compound, how does the “inhibitory activity” value [2] read?
A: not active

Q: With `C1CCC2(CC1)CCNC2` [Compound 16, 2-Azoniaspiro[4,5]decane Chloride] as the compound, how does the IC50 [2] read?
A: 12 ± 1.6 µM

Q: With `C1COC2(CCNCC2)OC1` [Compound 17, 1,5-Dioxa-9-azaspiro[5,5]undecane] as the compound, how does the IC50 [2] read?
A: > 100 µM

Q: And the remaining activity at 100 µM [2, 3]?
A: 100%

Q: With `C1CSC2(CCNCC2)SC1` [Compound 18, 1,5-Dithia-9-azaspiro[5,5]undecane] as the compound, how does the IC50 [2] read?
A: 37.6 ± 2.67 µM

Q: What about the remaining activity at 100 µM [2, 3] of the same compound?
A: 12%

Q: Which remaining activity at 100 µM ([2]; read-out: AM2 remaining Activity after 100uM inhibition) does the source give for `CCC1(C)CCNCC1` [Compound 20, 4-Ethyl-4-methylpiperidinium Chloride] here?
A: 22%
